Data on seven molecules can be found in patent publication EP0510719A1, “Benzimidazole derivatives substituted with a radical group and their use for inhibiting gastric acid secretion” (priority 1986, dated 1988).

Where a name gives a salt, the structure may show the parent alone. Read-outs that look alike come from different tables or passages of the source.

For one data set, the system named is gastric acid secretion. The data set can be described thus: Inhibiting effect in vivo on gastric acid secretion in conscious dog (histamine-stimulated, chronic gastric fistula dog). The note with it: inhibition during the 2nd hour after dose. How it is done: Chronic gastric fistula dog were used. These dogs have been surgically provided with a gastric cannula in the stomach and a duodenal fistula, used for direct intraduodenal administration of test compounds. Following a 4 weeks' recovery period after surgery, tests were performed once a week on each dog. Food and water were withdrawn 18 hours before each test.
Gastric acid secretion was induced by a continuous 4 h infusion of histamine at individual doses (400-600 nmol/kg^.h,iv) resulting in approximately 90% of maximal secretion of gastric acid. After 1 h of histamine stimulation, test compounds or vehicle were administered, either iv or im (vehicle = 0.5% saline) or id (vehicle = 0.5% Methocel®, 90 HG 15000, Dow Chem Corp.) via a catheter through the duodenal fistula. The gastric juice was collected by free flow from the gastric cannula in consecutive 30 min. samples during the duration of the histamine infusion. The samples were titrated to pH 7.0 with 0.1 M or 1.0 M NaOH using an automatic titrator and the acid output was calculated. The acid output during the periods after administration of test compound or vehicle was expressed as the fraction of the output during the period preceding these administrations, and the per cent inhibition of acid secretion was calculated by comparing in each dog the fractional responses induced by the test compound to the corresponding vehicle-induced fractional responses.
The test results given in Table 5 below represent inhibition during the 2nd hour after dose.

Data set [1] in a line: Chemical stability in aqueous buffer solution at different pH, followed kinetically. It counts as physicochemical.
The next data set in a line: Solubility in water. It counts as physicochemical. As to the method: By comparison, the sodium salt of omeprazole, 5-methoxy-2-[[(4-methoxy 3-5-dimethyl-pyridinyl)methyl] sulfinyl]-1-H-benzimidazole, has a solubility of 0.4 mg per ml at pH 9, a pH considered suitable for i.v. administration.
Setting [2] is: pH 5, 37°C, aqueous buffer solution, low concentration, read-out: t 1/2 (hours) pH 5 (converted).
[3] abbreviates: pH 7.3, 37°C, aqueous buffer solution, low concentration, read-out: t 1/2 (hours) pH 7.3 (converted).

Regarding `CCOP(=O)(O)OCn1c([S+]([O-])Cc2ncc(C)c(OC)c2C)nc2ccc(OC)cc21` (stereo not drawn) [Example 33], the “Inhibition of acid secretion (%)” value in the data set on gastric acid secretion (1 μmol/kg id) is recorded as 97 (1) %; in the data set on gastric acid secretion (4 μmol/kg id), 98 (1) %. Besides, in data set [1] (pH 5, 37°C, aqueous buffer solution, low concentration), the “t 1/2 (hours) pH 5” value is reported as “No decomp. after 30 h”.

As to `COc1ccc2c(c1)nc([S+]([O-])Cc1ncc(C)c(OC)c1C)n2COC(=O)CCC(=O)N1CCN(C)CC1` (stereo not drawn) [Example 34], the half-life was 80 h in data set [1] (pH 3, 37°C, aqueous buffer solution, low concentration, read-out: t 1/2 (hours) pH 3 (converted)); 100 h in data set [1] (setting [2]); 40 h in data set [1] (setting [3]).

The solubility is the dissolved amount per volume that the medium holds. Regarding `COc1ccc2[nH]c([S+]([O-])Cc3ncc(C)c(OC)c3C)nc2c1` (stereo not drawn) [omeprazole, 5-methoxy-2-[[(4-methoxy 3-5-dimethyl-pyridinyl)methyl]sulfinyl]-1-H-benzimidazole, reference compound], in “Solubility in water” (at pH 9, a pH considered suitable for i.v. administration, sodium salt, read-out: solubility), the solubility was 0.4 mg/mL.

For the molecule `COc1ccc2[nH]c([S+]([O-])Cc3ncc(C)c(OC)c3C)nc2c1` (stereo not drawn) [Omeprazole-Na^⊕], the half-life in data set [1] (pH 2, 37°C, aqueous buffer solution, low concentration, read-out: t 1/2 (hours) pH 2 (converted)) is 0.07 h; in data set [1] (setting [2]) it was 0.04 h; in data set [1] (setting [3]), 20 h.

For the molecule `COc1ccc2c(c1)nc([S+]([O-])Cc1ncc(C)c(OC)c1C)n2COP(=O)(O)O` (stereo not drawn) [Example 32, phosphoric acid, [5-methoxy-[2[[(4-methoxy-3,5-dimethyl-2-pyridinyl)methyl]sulfinyl]-1-H-benzimidazole-1-yl]]methyl ester, disodium salt], the “Inhibition of acid secretion (%)” value with gastric acid secretion (0,3 μmol/kg iv) is 55 (1) %; in the data set with gastric acid secretion (0,6 μmol/kg iv), 53 (1) %. Further, the half-life in data set [1] (setting [3]) was 51 h.

Consider `COc1c(C)cnc(C[S+]([O-])c2nc3ccccc3n2COC(=O)CCC(=O)N2CCN(C)CC2)c1C` (stereo not drawn) [Example 3], for which the solubility in “Solubility in water” (water) was > 60 mg/mL. Besides, the “Inhibition of acid secretion (%)” value is 72 (1) % in the data set on gastric acid secretion (0,3 μmol/kg iv), 98 (1) % in the data set with gastric acid secretion (1 μmol/kg iv) and 100 (1) % with gastric acid secretion (2 μmol/kg id). Besides, the half-life is 112 h in data set [1] (setting [2]) and 32 h in data set [1] (setting [3]).

With `COc1ccc2nc([S+]([O-])Cc3ncc(C)c(OC)c3C)n(COP(=O)(O)O)c2c1` (stereo not drawn) [Example 29], in “Solubility in water” (water), the solubility was > 60 mg/mL. For the same molecule, the “Inhibition of acid secretion (%)” value is reported as 45 (1) % in the data set on gastric acid secretion (0,3 μmol/kg iv), 60 (1) % in the data set on gastric acid secretion (0,5 μmol/kg iv), 90 (1) % with gastric acid secretion (1 μmol/kg im) and 80-85 (2) % in the data set on gastric acid secretion (1 μmol/kg iv). Also, the degraded at 600 h in data set [1] (aqueous buffer, after 25 days at 22° at the concentration 50 mg/ml, footnote to the pH 9.5 value, read-out: decomposition) was determined as 12%. Besides, the half-life was 74 h in data set [1] (setting [3]) and > 600 h in data set [1] (pH 9.5, 37°C, aqueous buffer solution, low concentration, read-out: t 1/2 (hours) pH 9.5).
